Structures can show the parent of a compound that is named as a salt.

The values below come from patent US5328917A, “Piperidine compounds for treating anoxia, cerebral ischemia migraine or epilepsy” (Novo Nordisk A/S, priority 1990, dated 1994).

Assay [1] has as its system voltage operated calcium channels. Put plainly: Inhibition of depolarization-stimulated 45Ca uptake into brain synaptosomes (crude P2 fraction of cerebral cortex). In kind it is biochemical, male Wistar rat. The conditions noted are these: rat cerebral cortex synaptosomes, KCl-depolarized, corrected for basal uptake, 15 s uptake at 37° C., estimated from dose response curves. From the text:
The pharmacological properties of the compounds of the invention can be illustrated by determining their capability to inhibit calcium uptake into brain synaptosomes. Depolarization of neuronal membranes leads to an opening of socalled "voltage operated calcium channels" (VOC) in the membranes which allows a massive influx of calcium from the extracellular space. A crude synaptosomal preparation (socalled P2 fraction) contains small vesicles surrounded by neuronal membrane and it is possible in such a preparation to study a depolarization-induced opening of VOC. In the present model ^45 Ca influx is induced in the synaptosomes by depolarization with elevated potassium concentrations, and the effect of test substances on this stimulated uptake is studied ([…]. and Blaustein, M. P., Mol. […] A male Wistar rat is decapitated and the cerebral cortex removed and homogenized in 10 ml. of ice-cold 0.32M sucrose using a glass homogenizer with a teflon pestle. All subsequent steps for isolation of synaptosomes are done at 0°-4° C. […] This pellet (P2) is resuspended in 0.32M sucrose (5 ml per g of original tissue) with a teflon pestle. […] The tubes are pre-incubated for 30 min on ice and then for 6 min at 37° C. in a water bath. […] The incubation is continued for 15 s. […] The amount of radioactivity on the filter disc is determined by liquid scintillation spectrometry. Test substances are dissolved in 10 ml of 48% ethanol at a concentration of 0.44 mg/ml. Dilution are made in 48% ethanol to give final concentrations of 0.1, 0.3, 1, 3 and 10 μg/ml. Experiments are performed in triplicate. […] The IC50 value is estimated from dose response curves.

The subject of assay [2] is peripheral calcium uptake, e.g. in blood vessels and the heart. The following applies: well known calcium antagonists; cited from earlier work.

Take `O=[N+]([O-])c1ccc([C@@H]2CCNC[C@H]2COc2cccc(C(F)(F)F)c2)cc1` (single isomer, unassigned) [Compound 9, (31)trans-4-(4-nitrophenyl)-3-(3-trifluoromethylphenoxymethyl)piperidine, hydrochloride]: the “IC50 (concentration of test substance which inhibits 50% of stimulated uptake of 45Ca)” value in assay [1] was 7.2 µg/mL.

As for `CCCCCN1CC[C@@H](c2ccc(F)cc2)[C@H](COCc2ccc(C(F)(F)F)cc2)C1` (single isomer, unassigned) [Compound 36, (-) trans-4-(4-fluorophenyl)-1-pentyl-3-(4-trifluoromethylbenzyloxymethyl)-piperidine, HCl], in assay [1], the “IC50 (concentration of test substance which inhibits 50% of stimulated uptake of 45Ca)” value was 6.4 µg/mL. Regarding `CCCCCN1CC[C@@H](c2ccc(F)cc2)[C@H](COCc2cccc(C(F)(F)F)c2)C1` (single isomer, unassigned) [Compound 60, (-)trans-4-(4-fluorophenyl)-1-pentyl-3-(3-trifluoromethylbenzyloxymethyl)-piperidine, HCl], the “IC50 (concentration of test substance which inhibits 50% of stimulated uptake of 45Ca)” value in assay [1] is 5.5 µg/mL.

As to `CCCCN1CC[C@@H](c2ccc(N(C)C)cc2)[C@H](COc2ccc(C(F)(F)F)cc2)C1.Cl.Cl` (single isomer, unassigned) [Compound 65, (-)-trans-1-butyl-4-(4-dimethylaminophenyl)-3-(4-trifluoromethylphenoxymethyl)piperidine dihydrochloride], the “IC50 (concentration of test substance which inhibits 50% of stimulated uptake of 45Ca)” value in assay [1] (dihydrochloride) was 6.5 µg/mL. With `CCCCCN1CC[C@@H](c2ccc(N)cc2)[C@H](COc2ccc3c(c2)OCO3)C1.Cl` (single isomer, unassigned) [Compound 10, (+)trans-4-(4-aminophenyl)-3-(3,4-methylenedioxyphenoxymethyl)-1-pentylpiperidine, hydrochloride], the “IC50 (concentration of test substance which inhibits 50% of stimulated uptake of 45Ca)” value in assay [1] was 8.9 µg/mL. As for `CCCCN1CC[C@@H](c2ccc(N(C)C)cc2)[C@H](COc2ccc(C(F)(F)F)cc2)C1.Cl.Cl` (single isomer, unassigned) [Compound 64, (+)-trans-1-butyl-4-(4-dimethylaminophenyl)-3-(4-trifluoromethylphenoxymethyl)piperidine dihydrochloride], the “IC50 (concentration of test substance which inhibits 50% of stimulated uptake of 45Ca)” value in assay [1] (dihydrochloride) was 4.2 µg/mL. With `CCCCN1CC[C@@H](c2ccc(N(C)C)cc2)[C@H](COc2ccc(C(F)(F)F)cc2)C1.Cl` (racemic) [Compound 11, (+-)trans-1-butyl-4-(4-dimethylaminophenyl)-3-(4-trifluoromethylphenoxymethyl)piperidine, hydrochloride], the “IC50 (concentration of test substance which inhibits 50% of stimulated uptake of 45Ca)” value in assay [1] was 4.9 µg/mL. Still for that read-out and setting: the value for `CCCCN1CC[C@@H](c2ccc(N(C)C)cc2)[C@H](COc2ccc(Cl)c(Cl)c2)C1` (relative stereo) [Compound 52, (+-) trans 1-butyl-3-(3,4-dichlorophenoxymethyl) 4-(4-dimethylaminophenyl)piperidine, HCl] was 2.8 µg/mL. Turning to `COc1ccc(CCN(C)CCCC(C#N)(c2ccc(OC)c(OC)c2)C(C)C)cc1OC` (centres unmarked) [Verapamil], the “activity against peripheral calcium uptake” value in assay [2] is listed as “have activity against peripheral calcium uptake”.

Turning to `CCCCN1CC[C@@H](c2ccc(N(C)C)cc2)[C@H](COc2ccc([N+](=O)[O-])cc2)C1` (relative stereo) [Compound 57, (+-) trans 1-butyl-4-(4-dimethylaminophenyl)-3-(4-nitrophenoxymethyl) piperidine, HCl], the “IC50 (concentration of test substance which inhibits 50% of stimulated uptake of 45Ca)” value in assay [1] was 3.2 µg/mL.

As to `CCCCN1CC[C@@H](c2ccc(N(C)C)cc2)[C@H](COc2cccc(C(F)(F)F)c2)C1.Cl` (racemic) [Compound 17, (+-)trans-1-butyl-4-(4-dimethylaminophenyl)-3-(3-trifluoromethylphenoxymethyl)piperidine, hydrochloride], the “IC50 (concentration of test substance which inhibits 50% of stimulated uptake of 45Ca)” value in assay [1] was 7.4 µg/mL. For `CCCCN1CC[C@@H](c2ccc(N(C)C)cc2)[C@H](COc2ccc(Cl)cc2)C1` (relative stereo) [Compound 51, (+-) trans 1-butyl-3-(4-chlorophenoxymethyl)-4-(4-dimethylaminophenyl) piperidine, hydrochloride], the “IC50 (concentration of test substance which inhibits 50% of stimulated uptake of 45Ca)” value in assay [1] was 3.8 µg/mL. In the case of `CCCCN1CC[C@@H](c2ccc(N(C)C)cc2)[C@H](COc2ccc3c(c2)OCO3)C1.Cl` (racemic) [Compound 15, (+-)trans-1-butyl-4-(4-dimethylaminophenyl)-3-(3,4-methylenedioxyphenoxymethyl)piperidine, hydrochloride], the “IC50 (concentration of test substance which inhibits 50% of stimulated uptake of 45Ca)” value in assay [1] is 5.0 µg/mL. As to `CCCCN1CCC(c2ccccc2)C(CNc2ccc(C(F)(F)F)cc2)C1` (centres unmarked) [Compound 22, 1-butyl-3-(4-trifluoromethylphenylaminomethyl)-4-phenylpiperidine, HCl], the “IC50 (concentration of test substance which inhibits 50% of stimulated uptake of 45Ca)” value in assay [1] is 4 µg/mL. In the case of `COC(=O)C1=C(C)NC(C)=C(C(=O)OC)C1c1ccccc1[N+](=O)[O-]` [Nifedipine], the “activity against peripheral calcium uptake” value in assay [2] is on record as “have activity against peripheral calcium uptake”. Regarding `COc1ccc([C@@H]2Sc3ccccc3N(CCN(C)C)C(=O)[C@@H]2OC(C)=O)cc1` [Diltiazem], the “activity against peripheral calcium uptake” value in assay [2] was “have activity against peripheral calcium uptake”. For the compound `CCCCN1CCC(c2ccccc2)C(CNCc2ccc(OC)cc2)C1` (centres unmarked) [Compound 20, 1-butyl-3-(4-methoxybenzylaminomethyl)-4-phenylpiperidine, HCl], in assay [1], the “IC50 (concentration of test substance which inhibits 50% of stimulated uptake of 45Ca)” value was 2.7 µg/mL.
